Several values for one entry are separate records, joined by “and”; a condition that tells them apart may be missing. Equal values may be shown once. Read-outs that look alike come from different tables or passages of the source.
Experiments:
[1] = Electrostatic charge measurement (shaking can, Faraday cup); format: physicochemical; conditions: for Average Charge Density of Batch: 3 samples; for Calculated Charge Density: shaken 90 seconds
Excerpt: Electrostatic Charge Measurement
Equipment and Accessories
Electrical Shaker—Scientific Industries type Vortex-2 Genie (including specific holder for the shaking cans).
Electrostatic Charge Meter—Monroe Electronics type Nanocoulomb Meter 253 (Faraday Cup).
Metal shaking can, S.S. 316, 30×50_mm.
Plastic shaking can, Perspex, 30×50_mm.
Description of Test Procedure
Calibration of the Electrostatic Charge Meter, prior the test according to manufacturer's procedure.
6 sample cans were used for each batch.
The shaking can placed in flat dish, the sample cam was opened and the powder was manually poured into the shaking can.
The shaking can was hermetically closed by plastic cover and mounted in the holder.
The electrical shaker was operated for 90 seconds, at maximum rate.
Subsequent of the shaking period the shaking can was moved into the flat dish, the cover was removed and the powder was manually poured into a glass can within the Faraday-Cup. Some of the powder was transferred by gravitational pouring (90-99%), the rest was transferred by manually push using wooden spatula (with strict adherence to tender motion).
The Faraday-Cup was closed and the charge reading (in meter display) was recorded. The described test stages were equally conducted on the selected 6 samples of each batch, as follow: 3 powder samples were shaken in metal can, 3 powder samples were shaken in plastic can. All the samples were shaken in each can for the same time period of 90 seconds.

[2] = Flowability, FT4 Powder Rheometer (REP+VFR); format: physicochemical; conditions: 25 mm blade, 25 ml vessel; for BFE (Basic Flow Energy = Energy Test 7): tipspeed 100 mm/s
Method: Instrument: FT4 Powder Rheometer (Freeman Technology Ltd).
Methodology: The blade was rotated and simultaneously moved axially into a powder sample whist axial force and rotational forces are measured.
The 25 mm blade and a 25 ml split borosilicate test vessel were used.
The Stability and Variable Flow Rate programs were run together by combining the two methods into one program (REP+VFR). The REP+VFR study is a combination of the seven conditioning and test cycles (blade tipspeed is 100 mm/s) at constant speed and the four conditioning and test cycles (blade tipspeed is 100, 70, 40 and 10 mm/s, respectively) with decreasing in blade speed. Definitions of the Flow Parameters:
Basic Flow Energy (BFE)=Energy Test 7, mJ
Stability index (SI)=Energy test 7/Energy Test 1

[3] = target: T1, MT3 receptor (Homo sapiens, UniProt P16083); conditions: cited from earlier work
T1 sequence (P16083 1-231): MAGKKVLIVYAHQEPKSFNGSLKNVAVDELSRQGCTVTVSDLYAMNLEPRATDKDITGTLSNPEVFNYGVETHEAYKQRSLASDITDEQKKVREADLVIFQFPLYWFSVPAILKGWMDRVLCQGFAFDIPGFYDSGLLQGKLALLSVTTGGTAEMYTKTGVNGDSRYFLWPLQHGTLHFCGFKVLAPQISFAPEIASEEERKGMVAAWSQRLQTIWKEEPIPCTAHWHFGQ

[4] = target: T2, melatonin MT2 receptor (Homo sapiens, UniProt P49286); conditions: cited from earlier work
T2 sequence (P49286 1-362): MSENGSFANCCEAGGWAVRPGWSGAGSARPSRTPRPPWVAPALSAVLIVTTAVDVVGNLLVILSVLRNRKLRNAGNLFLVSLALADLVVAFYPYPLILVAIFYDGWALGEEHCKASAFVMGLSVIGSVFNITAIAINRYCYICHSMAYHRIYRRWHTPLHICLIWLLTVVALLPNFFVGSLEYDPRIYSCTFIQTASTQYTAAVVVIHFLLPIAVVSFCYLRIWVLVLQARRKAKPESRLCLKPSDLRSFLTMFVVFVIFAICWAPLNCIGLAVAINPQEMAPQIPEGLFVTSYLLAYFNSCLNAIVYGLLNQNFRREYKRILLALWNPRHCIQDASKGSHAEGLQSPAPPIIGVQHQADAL

[5] = cited from earlier work
[6] = target: melatonin MT1 receptor (Homo sapiens, UniProt P48039); conditions: cited from earlier work
Chain of melatonin MT1 receptor (P48039 whole entry): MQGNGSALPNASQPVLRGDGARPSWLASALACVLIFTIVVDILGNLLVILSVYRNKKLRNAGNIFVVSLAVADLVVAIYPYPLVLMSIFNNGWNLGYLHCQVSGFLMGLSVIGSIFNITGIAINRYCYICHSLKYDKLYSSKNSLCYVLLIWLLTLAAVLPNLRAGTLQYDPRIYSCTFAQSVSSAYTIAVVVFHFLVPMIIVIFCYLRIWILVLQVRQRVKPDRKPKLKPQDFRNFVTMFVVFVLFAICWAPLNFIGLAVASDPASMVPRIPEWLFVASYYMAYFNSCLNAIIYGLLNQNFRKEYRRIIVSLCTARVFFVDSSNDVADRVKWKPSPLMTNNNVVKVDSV

average charge density relative to sample obtained from Toluene ([1]; metal can)	Average Charge Density of Batch ([1]; metal can) [nC/gr]	Calculated Charge Density ([1]; metal can)	average charge density relative to sample obtained from Toluene ([1]; plastic can)	Average Charge Density of Batch ([1]; plastic can) [nC/gr]	Calculated Charge Density ([1]; plastic can)	SI (Stability index = Energy test 7/Energy Test 1) [2]	BFE (Basic Flow Energy = Energy Test 7) ([2]; listed as Sample from Ethylacetate) [mJ]	BFE (Basic Flow Energy = Energy Test 7) ([2]; listed as Sample from Toluene) [mJ]	SI (Stability index = Energy test 7/Energy Test 1) ([2]; listed as Sample from Toluene)	SMILES	selectivity over the MT3 receptor [3]	affinity for melatonin MT2 receptor [4]	solubility ([5]; 1-octanol)	solubility ([5]; DMSO)	solubility ([5]; aqueous buffer)	solubility ([5]; ethanol)	solubility ([5]; methanol)	solubility ([5]; water)	affinity for melatonin MT1 receptor [6]
about 12 times	9.63	8.8 nC/gr and 10.1 nC/gr and 10.0 nC/gr	about 15 times	10.82	10.1 nC/gr and 14.05 nC/gr and 8.3 nC/gr	0.622	181			CCC(=O)NCC[C@@H]1CCc2ccc3c(c21)CCO3 [Ethyl Acetate, ramelteon]									
										CCC(=O)NCC[C@@H]1CCc2ccc3c(c21)CCO3 [Ramelteon, (S)—N-[2-(1,6,7,8-tetrahydro-2H-indeno-[5,4-b]furan-8-yl)ethyl]propionamide]	selectivity over the MT3 receptor	high affinity	freely soluble	freely soluble	highly soluble	freely soluble	freely soluble	highly soluble	high affinity
	0.82			0.72	0.85 nC/gr and 0.6 nC/gr and 0.7 nC/gr			92.5	1.02	CCC(=O)NCC[C@@H]1CCc2ccc3c(c21)CCO3 [Toluene, ramelteon]									
